Tests used:
Format in all cases: cell-based, human
[1] = system: HUVEC endothelial cells; experiment: IL-6 and IL-8 ELISA of HUVEC cells treated with sCART-mono supernatant; conditions: 24 hr, concentrations of Table 2
Protocol: (§1) With reference to FIG. 13 of the accompanying drawings, a co-culture (100) is established using a standard cell culture transwell dish, including a first compartment (101), containing CAR T cells and cancer cells (at a 1:1 ratio), which is separated from a second compartment (102), containing monocytes, by a semi-permeable membrane (103) composed of tissue-culture treated polyethylene terephthalate with a 0.4 μm pore size.
(§2) Each of UR-13870, Acumapimod and Ralimetinib are administered to the co-culture following a procedure analogous to that described in Example 2 above (at the concentrations as shown in Table 2 above).
(§3) The co-culture is incubated at 37° C., 5% CO2 and a suitably humid environment for 24 hours. On completion, the transwell insert is removed and supernatant is isolated. Cells and debris are removed from the supernatant by exposing the container to a centripetal force of 400 G and gently pipetting the supernatant into a new container without disturbing the cell pellet at the bottom of the previous container.
(§4) Prior to adding the p38 inhibitors and sCART-mono, endothelial cells are incubated overnight at 37° C. and 5% CO2 in a suitably humid environment to allow the cells to adhere fully to the tissue culture dish.
Supernatant levels of IL-6 and IL-8 are determined following 24 hr treatment with sCART-mono and the p38 MAPK inhibitors by ELISA.

[2] = system: CD19+ cancer cells; experiment: CAR T cell killing of tumour cells in 24-hour co-culture (flow cytometry); conditions: high dose only, CAR T to cancer cell ratio 1:1
Excerpt: Raji immortalized human B cell line CD19-expressing cancer cells (available from the American Type Culture Collection) are acquired and stable transfection of the Raji cell line is generated with an mCherry reporter protein to facilitate identification of the cancer cells within co-cultures by detection of the mCherry protein fluorescence by flow cytometry.
(§5) UR-13870, Ralimetinib or Acumapimod are each added to a culture of CD19+ cancer cells (using a micropipette to transfer the correct volume to achieve the desired final concentration in Table 2).
(§6) CAR T cells are then added to the same culture 5-10 minutes later. In brief, CAR T cell concentrations per ml are determined and used to aliquot the desired number of CAR T cells into the culture to achieve the described 1:1 CAR T to cancer cell ratio.
(§7) The co-culture containing CAR T cells and tumour cells is swirled gently to ensure homogenous dispersion of cells throughout the vessel. The resultant co-culture is incubated for 24 to 96 hours in a closed incubator at 37° C. with 5% CO2 and a suitably humid atmosphere.
Tumour cell death is observed by examining relative CAR T cell:tumour cell numbers by flow cytometry following 24 hour co-culture, as shown in FIG. 7.

[3] = system: HUVEC endothelial cells; experiment: QPCR of ICAM1 in HUVEC cells treated with sCART-mono supernatant; conditions: 24 hours
Protocol: as §1, §2, §3, §4
Reduced endothelial cell activation is evidenced by reduced ICAM1 expression in response to treatment with UR-13870, Acumapimod and Ralimetinib.

[4] = system: CAR T cells; experiment: CAR T cell proliferation in CAR T cell:cancer cell co-culture (Cell Trace Violet, flow cytometry); conditions: CAR T:tumour cell co-culture 1:1; concentrations of Table 2
Protocol: CAR T cell proliferation is confirmed by Cell Trace™ Violet staining of CAR T cells (staining agent having been added prior to addition of the T cells to the co-cultures with tumour cells). Staining may be observed, following co-culture, via flow cytometry.
as §5, §6, §7

OCCCn1cc2c(-c3ccc(F)cc3)c(-c3ccncc3)c(-c3ccc(F)cc3)nc2n1 [UR-13870, 6-bis(4-fluorophenyl)-5-(4-pyridinyl)-2Hpyrazolo[3,4-b]pyridine-2-propanol]
IL-6 levels in supernatant [1]: reduced
IL-8 levels in supernatant [1]: (albeit non-significant) downward trend
CAR T cell-induced cancer cell death (percentage of residual tumour cells in the co-culture) [2]: maintain CAR T cell-induced cancer cell death
ICAM1 expression (endothelial cell activation) [3]: reduced
CAR T cell proliferation (Cell Trace Violet staining) [4]: maintain CAR T cell proliferation
